For 13 compounds, TGI and GI50 results are on record in PubChem BioAssay (NCI).

Molecules are shown by their SMILES.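 All cell lines were grown in 96-well plates and treated with compound for 48 hours. GI50: concentration for 50% inhibition of growth. TGI is the concentration that stops growth completely.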 Bounds are passed on as bounds.

The first experiment concerns HCC-2998 colon. Kind of experiment: inhibition of tumour cell growth, NCI panel, 48 h.
With `COc1cnc2cc(C(=O)O)c3c([N+](=O)[O-])cccc3c2c1`, the TGI was greater than 100 µM.

As for `Cc1ccc(S(=O)(=O)N(CCOc2ccc(/C(N)=N/Cl)cc2)CCOc2ccc(/C(N)=N\Cl)cc2)cc1`, the GI50 is 18.2 µM and the TGI was determined as 46.3 µM.

Take `COc1ccc(C2=NN(C(=O)c3cc(OC)c(OC)c(OC)c3)C(c3ccc(C#N)cc3)C2)cc1OC` (centres undefined): the GI50 is 2.16 µM and the TGI is 6.63 µM.

For the compound `CCOc1cccc(/C=N/NC(=O)c2ccccc2Nc2ccnc(C(F)(F)F)c2)c1O`, the GI50 is 0.398 µM and the TGI was greater than 44.2 µM.

As to `COc1ccc2c(c1)c(-c1nc(-c3cn(C)c4ncccc34)cs1)cn2CCCN1CCCCC1`, the GI50 is 1.56 µM and the TGI amounted to 3.06 µM.

In the case of `CC1=C(C(=O)Nc2ccc3[nH]ncc3c2)C(c2ccc3ccccc3c2)CC(=O)N1` (centres undefined), the GI50 is greater than 25 µM and the TGI was greater than 25 µM.

With `CC1OC(O[C@H]2C[C@@H](O)[C@]3(CO)[C@H]4[C@H](O)C[C@]5(C)[C@@H](C6=CC(=O)OC6)CC[C@]5(O)[C@@H]4CC[C@]3(O)C2)C(O)C(O)C1O` (some centres undefined), the GI50 is 20.2 µM and the TGI was determined as 36.6 µM.

`O=C1/C(=C/c2ccc(Br)cc2)C=C(c2ccccc2)N1CCc1ccccc1`: the GI50 was 7.52 µM and the TGI is greater than 100 µM.

On to `CCCCC(=O)OCC1OC(n2cnc3c(=S)nc[nH]c32)C(OC(=O)CCCC)C1OC(=O)CCCC` (centres undefined), for which the GI50 was 0.565 µM and the TGI was greater than 36.7 µM.

As to `O=c1oc2ccc(F)cc2c(=O)n1-c1ccc(F)cc1F`, the GI50 is 3.9 µM and the TGI was found to be 27.7 µM.

For the compound `O=C(O)CCCCC(CCSCc1ccccc1)SCc1ccccc1` (centres undefined), the GI50 is 34.8 µM and the TGI is greater than 100 µM.

`CC1=C(CCCNS(C)(=O)=O)C2=C(C)C3(CC3)[C@@](C)(O)C(=O)C2=C1`: the GI50 is 1.52 µM and the TGI worked out at 4.51 µM.

`O=NN(Cc1ccc(Cl)cc1)C(C(=O)O)c1ccccc1` (centres undefined) returned a TGI greater than 100 µM.

A further experiment concerns T-47D breast. Kind of experiment: inhibition of tumour cell growth, NCI panel, 48 h.
`COc1cnc2cc(C(=O)O)c3c([N+](=O)[O-])cccc3c2c1` gave a TGI greater than 100 µM.

As for `Cc1ccc(S(=O)(=O)N(CCOc2ccc(/C(N)=N/Cl)cc2)CCOc2ccc(/C(N)=N\Cl)cc2)cc1`, the GI50 is 15.3 µM and the TGI was 81.7 µM.

As for `COc1ccc(C2=NN(C(=O)c3cc(OC)c(OC)c(OC)c3)C(c3ccc(C#N)cc3)C2)cc1OC` (centres undefined), the GI50 is 3.64 µM and the TGI was determined as 97.6 µM.

For the compound `CCOc1cccc(/C=N/NC(=O)c2ccccc2Nc2ccnc(C(F)(F)F)c2)c1O`, the GI50 was 0.582 µM and the TGI was determined as 37.5 µM.

Consider `COc1ccc2c(c1)c(-c1nc(-c3cn(C)c4ncccc34)cs1)cn2CCCN1CCCCC1`, for which the GI50 is 1.83 µM and the TGI came out at 4.28 µM.

Regarding `CC1=C(C(=O)Nc2ccc3[nH]ncc3c2)C(c2ccc3ccccc3c2)CC(=O)N1` (centres undefined), the GI50 is greater than 25 µM and the TGI was greater than 25 µM.

With `CC1OC(O[C@H]2C[C@@H](O)[C@]3(CO)[C@H]4[C@H](O)C[C@]5(C)[C@@H](C6=CC(=O)OC6)CC[C@]5(O)[C@@H]4CC[C@]3(O)C2)C(O)C(O)C1O` (some centres undefined), the GI50 was 24.9 µM and the TGI turned out to be 51.5 µM.

Consider `O=C1/C(=C/c2ccc(Br)cc2)C=C(c2ccccc2)N1CCc1ccccc1`, for which the GI50 is 13.3 µM and the TGI is greater than 100 µM.

`CCCCC(=O)OCC1OC(n2cnc3c(=S)nc[nH]c32)C(OC(=O)CCCC)C1OC(=O)CCCC` (centres undefined): the GI50 was 1.17 µM and the TGI was greater than 59 µM.

Consider `O=c1oc2ccc(F)cc2c(=O)n1-c1ccc(F)cc1F`, for which the GI50 was 2.28 µM and the TGI turned out to be 7.08 µM.

As for `O=C(O)CCCCC(CCSCc1ccccc1)SCc1ccccc1` (centres undefined), the GI50 was 44 µM and the TGI is greater than 100 µM.

In the case of `CC1=C(CCCNS(C)(=O)=O)C2=C(C)C3(CC3)[C@@](C)(O)C(=O)C2=C1`, the GI50 was 0.563 µM and the TGI was found to be 6.02 µM.

On to `O=NN(Cc1ccc(Cl)cc1)C(C(=O)O)c1ccccc1` (centres undefined), for which the TGI is greater than 100 µM.

The test system of another experiment is UO-31 renal. Kind of experiment: inhibition of tumour cell growth, NCI panel, 48 h.
As to `COc1cnc2cc(C(=O)O)c3c([N+](=O)[O-])cccc3c2c1`, the TGI was greater than 100 µM.

`Cc1ccc(S(=O)(=O)N(CCOc2ccc(/C(N)=N/Cl)cc2)CCOc2ccc(/C(N)=N\Cl)cc2)cc1`: the GI50 is greater than 100 µM and the TGI was greater than 100 µM.

As for `COc1ccc(C2=NN(C(=O)c3cc(OC)c(OC)c(OC)c3)C(c3ccc(C#N)cc3)C2)cc1OC` (centres undefined), the GI50 was 0.439 µM and the TGI was 17.4 µM.

`CCOc1cccc(/C=N/NC(=O)c2ccccc2Nc2ccnc(C(F)(F)F)c2)c1O`: the GI50 was 0.303 µM.

As for `COc1ccc2c(c1)c(-c1nc(-c3cn(C)c4ncccc34)cs1)cn2CCCN1CCCCC1`, the GI50 is 1.51 µM and the TGI worked out at 2.87 µM.

Take `CC1=C(C(=O)Nc2ccc3[nH]ncc3c2)C(c2ccc3ccccc3c2)CC(=O)N1` (centres undefined): the GI50 is 2.4 µM and the TGI was greater than 25 µM.

Consider `CC1OC(O[C@H]2C[C@@H](O)[C@]3(CO)[C@H]4[C@H](O)C[C@]5(C)[C@@H](C6=CC(=O)OC6)CC[C@]5(O)[C@@H]4CC[C@]3(O)C2)C(O)C(O)C1O` (some centres undefined), for which the GI50 was 24.7 µM and the TGI is 57.1 µM.

As for `O=C1/C(=C/c2ccc(Br)cc2)C=C(c2ccccc2)N1CCc1ccccc1`, the GI50 was 2.82 µM and the TGI was found to be 19.8 µM.

Regarding `CCCCC(=O)OCC1OC(n2cnc3c(=S)nc[nH]c32)C(OC(=O)CCCC)C1OC(=O)CCCC` (centres undefined), the GI50 was 2.2 µM and the TGI was greater than 100 µM.

Turning to `O=c1oc2ccc(F)cc2c(=O)n1-c1ccc(F)cc1F`, the GI50 was 1.93 µM and the TGI was found to be 6.56 µM.

`O=C(O)CCCCC(CCSCc1ccccc1)SCc1ccccc1` (centres undefined): the GI50 was 30.9 µM and the TGI is greater than 100 µM.

In the case of `CC1=C(CCCNS(C)(=O)=O)C2=C(C)C3(CC3)[C@@](C)(O)C(=O)C2=C1`, the GI50 is 0.5 µM and the TGI worked out at 2.3 µM.

Turning to `O=NN(Cc1ccc(Cl)cc1)C(C(=O)O)c1ccccc1` (centres undefined), the TGI is greater than 100 µM.

Another experiment concerns HCT-15 colon. Kind of experiment: inhibition of tumour cell growth, NCI panel, 48 h.
Compound `COc1cnc2cc(C(=O)O)c3c([N+](=O)[O-])cccc3c2c1` had a TGI greater than 100 µM.

Take `Cc1ccc(S(=O)(=O)N(CCOc2ccc(/C(N)=N/Cl)cc2)CCOc2ccc(/C(N)=N\Cl)cc2)cc1`: the GI50 was greater than 100 µM and the TGI was greater than 100 µM.

`COc1ccc(C2=NN(C(=O)c3cc(OC)c(OC)c(OC)c3)C(c3ccc(C#N)cc3)C2)cc1OC` (centres undefined): the GI50 was 1.48 µM and the TGI was greater than 64.8 µM.

With `CCOc1cccc(/C=N/NC(=O)c2ccccc2Nc2ccnc(C(F)(F)F)c2)c1O`, the GI50 is 0.195 µM and the TGI was greater than 100 µM.

With `COc1ccc2c(c1)c(-c1nc(-c3cn(C)c4ncccc34)cs1)cn2CCCN1CCCCC1`, the GI50 is 1.53 µM and the TGI came out at 2.96 µM.

As to `CC1=C(C(=O)Nc2ccc3[nH]ncc3c2)C(c2ccc3ccccc3c2)CC(=O)N1` (centres undefined), the GI50 is greater than 25 µM and the TGI was greater than 25 µM.

In the case of `CC1OC(O[C@H]2C[C@@H](O)[C@]3(CO)[C@H]4[C@H](O)C[C@]5(C)[C@@H](C6=CC(=O)OC6)CC[C@]5(O)[C@@H]4CC[C@]3(O)C2)C(O)C(O)C1O` (some centres undefined), the GI50 is 17.3 µM and the TGI is 31.9 µM.

For `O=C1/C(=C/c2ccc(Br)cc2)C=C(c2ccccc2)N1CCc1ccccc1`, the GI50 was 11.7 µM and the TGI is greater than 100 µM.

Regarding `CCCCC(=O)OCC1OC(n2cnc3c(=S)nc[nH]c32)C(OC(=O)CCCC)C1OC(=O)CCCC` (centres undefined), the GI50 was 1.56 µM and the TGI was greater than 100 µM.

For the compound `O=c1oc2ccc(F)cc2c(=O)n1-c1ccc(F)cc1F`, the GI50 was 3.36 µM and the TGI is 17.5 µM.

Take `O=C(O)CCCCC(CCSCc1ccccc1)SCc1ccccc1` (centres undefined): the GI50 was 33.1 µM and the TGI is greater than 100 µM.

Consider `CC1=C(CCCNS(C)(=O)=O)C2=C(C)C3(CC3)[C@@](C)(O)C(=O)C2=C1`, for which the GI50 was 1.23 µM and the TGI was greater than 100 µM.

`O=NN(Cc1ccc(Cl)cc1)C(C(=O)O)c1ccccc1` (centres undefined) had a TGI greater than 100 µM.

A further experiment deals with OVCAR-5 ovarian. Kind of experiment: inhibition of tumour cell growth, NCI panel, 48 h.
For `COc1cnc2cc(C(=O)O)c3c([N+](=O)[O-])cccc3c2c1`, the TGI is greater than 100 µM.

With `Cc1ccc(S(=O)(=O)N(CCOc2ccc(/C(N)=N/Cl)cc2)CCOc2ccc(/C(N)=N\Cl)cc2)cc1`, the GI50 was greater than 100 µM and the TGI is greater than 100 µM.

With `COc1ccc(C2=NN(C(=O)c3cc(OC)c(OC)c(OC)c3)C(c3ccc(C#N)cc3)C2)cc1OC` (centres undefined), the GI50 is 5.24 µM and the TGI was greater than 100 µM.

As for `CCOc1cccc(/C=N/NC(=O)c2ccccc2Nc2ccnc(C(F)(F)F)c2)c1O`, the GI50 is 5.39 µM and the TGI was greater than 100 µM.

With `COc1ccc2c(c1)c(-c1nc(-c3cn(C)c4ncccc34)cs1)cn2CCCN1CCCCC1`, the GI50 was 1.64 µM and the TGI stood at 3.25 µM.

Regarding `CC1=C(C(=O)Nc2ccc3[nH]ncc3c2)C(c2ccc3ccccc3c2)CC(=O)N1` (centres undefined), the GI50 was 20.5 µM and the TGI was greater than 25 µM.

In the case of `CC1OC(O[C@H]2C[C@@H](O)[C@]3(CO)[C@H]4[C@H](O)C[C@]5(C)[C@@H](C6=CC(=O)OC6)CC[C@]5(O)[C@@H]4CC[C@]3(O)C2)C(O)C(O)C1O` (some centres undefined), the GI50 was 35.7 µM and the TGI is greater than 100 µM.

As for `O=C1/C(=C/c2ccc(Br)cc2)C=C(c2ccccc2)N1CCc1ccccc1`, the GI50 is 4.28 µM and the TGI was determined as 40.2 µM.

In the case of `CCCCC(=O)OCC1OC(n2cnc3c(=S)nc[nH]c32)C(OC(=O)CCCC)C1OC(=O)CCCC` (centres undefined), the GI50 was 3.65 µM and the TGI was greater than 100 µM.

Consider `O=c1oc2ccc(F)cc2c(=O)n1-c1ccc(F)cc1F`, for which the GI50 is 3.46 µM and the TGI is greater than 100 µM.

With `O=C(O)CCCCC(CCSCc1ccccc1)SCc1ccccc1` (centres undefined), the GI50 is greater than 100 µM and the TGI is greater than 100 µM.

Regarding `CC1=C(CCCNS(C)(=O)=O)C2=C(C)C3(CC3)[C@@](C)(O)C(=O)C2=C1`, the GI50 was 0.654 µM and the TGI stood at 7.62 µM.

Consider `O=NN(Cc1ccc(Cl)cc1)C(C(=O)O)c1ccccc1` (centres undefined), for which the TGI is greater than 100 µM.
